Experimental data as given in article PMC7316745, “A small-molecule ARTS mimetic promotes apoptosis through degradation of both XIAP and Bcl-2” (Cell Death & Disease, 2020).

Tests used:
[1] = biological target: T1, XIAP (Homo sapiens, UniProt P98170); test: microscale thermophoresis (MST); assay type: binding
T1 construct: recombinant untagged XIAP, NT650-labelled (maleimide coupling)

[2] = test system: Caco-2; test: cells; set-up: Sulforhodamine B growth/viability assay on tumour cell line panel (Oncolead), six dilutions, compound replenished daily; details: Homo sapiens, Caco-2; 72 h, SRB; read-out: Supplementary table 1 / A4 IC50
Protocol: (§1) Screening of 94 different cancer cell lines spanning over 18 human tissues was performed by Oncolead Ltd. The company used an identical platform to the one NIH, NCI-60 uses to assess the effect of a compound on the viability of a variety of tumour cell lines. Briefly, cells are treated with a series of six dilutions of a compound for 72 h (compound is replenished daily). After 72 h, cells were fixed (living cells are attached to the plate), and then washed to remove dead and dying cells. Cells were then stained with a dye (sulforhodamine B) that dyes all proteins purple, which is measured by a plate reader and provides quantification of living cells. The number of cells treated with the compound is compared to the number of cells treated with DMSO (solvent). The inhibitory concentration (IC) value was calculated by taking the number of cells after 72 h of treatment and dividing by the number of cells after 72 h treatment with DMSO (C). IC50 is the value calculated from the dose–response plot, which is the concentration of the compound that has 50% decrease of the IC. To determine the specificity of A4 killing for various types of cancer, a panel of 94 cancer cell lines representing 18 different types of cancers were tested. The IC50 values for each cell line treated with A4 were determined (Oncolead Ltd). The cancers that were most sensitive to A4 killing were of haematological origin (8/12 different cell lines), melanoma (3/5 lines), pancreatic cancer and 4/7 lung cancers. Importantly, peripheral blood mononuclear cells (PBMCs), representing healthy normal cells, and 184A1, a normal human epithelium mammary gland cell, were not killed by A4 (Fig. 5a, Supplementary Table 1 and Fig. 5cI, respectively). To explore whether the levels of XIAP and Bcl-2 protein affect the sensitivity to A4, we analysed the available web proteomes and looked for a correlation. While data regarding XIAP expression levels were found in most proteomes (28 of 32 proteomes), Bcl-2 expression data were only detected in few (9 of 32 proteomes) (data not shown). A significant correlation was found between XIAP expression levels (ratio to actin, GAPDH) and the sensitivity to A4 (IC50, µM) in breast, ovary and kidney carcinomas (Fig. 5bI, II and Supplementary Tables 1 and 2). Cancer cell lines with high levels of XIAP were particularly sensitive to the killing effect of A4 (Fig. 5bI, II and Supplementary Tables 1 and 2). […] To further confirm that A4 functions as a specific antagonist for XIAP, we performed a SKOV-3 rescue assay. SKOV-3 ovarian carcinoma cells are highly sensitive to SMs[49]. SMs act by antagonizing cIAPs, an event that leads to cell death when complemented by an XIAP-dependent increase in TNFα production[47],[48],[58]. In SKOV-3 cells, XIAP is required for TNFα production, which recruits cIAP into a complex that activates caspase-8 and apoptosis through the extrinsic pathway (Fig. 6a)[49]. Knockdown of XIAP in SKOV-3 cells bestowed resistance to SMs[49]. We utilized this assay to investigate the specificity of A4 for XIAP compared to cIAPs. Treatment with 1 μM of the SM Birinapant for […]

[3] = test system: HS578T; test: cells; set-up: Sulforhodamine B growth/viability assay on tumour cell line panel (Oncolead), six dilutions, compound replenished daily; details: Homo sapiens, Hs-578T; 72 h, SRB; read-out: Supplementary table 1 / A4 IC50
Protocol: as §1

[4] = test system: HEK293; test: cells; set-up: Sulforhodamine B growth/viability assay on tumour cell line panel (Oncolead), six dilutions, compound replenished daily; details: Homo sapiens, HEK293; 72 h, SRB; read-out: Supplementary table 1 / A4 IC50
Protocol: as §1

[5] = test system: DLD1; test: cells; set-up: Sulforhodamine B growth/viability assay on tumour cell line panel (Oncolead), six dilutions, compound replenished daily; details: Homo sapiens, DLD-1; 72 h, SRB; read-out: Supplementary table 1 / A4 IC50
Protocol: as §1

[6] = test system: SKOV-3; test: cells; set-up: Sulforhodamine B growth/viability assay on tumour cell line panel (Oncolead), six dilutions, compound replenished daily; details: Homo sapiens, SK-OV-3; 72 h, SRB; read-out: Supplementary table 1 / A4 IC50
Protocol: as §1

[7] = test system: Caki1; test: cells; set-up: Sulforhodamine B growth/viability assay on tumour cell line panel (Oncolead), six dilutions, compound replenished daily; details: Homo sapiens, CAKI-1; 72 h, SRB; read-out: Supplementary table 1 / A4 IC50
Protocol: as §1

[8] = test system: ACHN; test: cells; set-up: Sulforhodamine B growth/viability assay on tumour cell line panel (Oncolead), six dilutions, compound replenished daily; details: Homo sapiens, ACHN; 72 h, SRB; read-out: Supplementary table 1 / A4 IC50
Protocol: as §1

[9] = test system: 786-0; test: cells; set-up: Sulforhodamine B growth/viability assay on tumour cell line panel (Oncolead), six dilutions, compound replenished daily; details: Homo sapiens, 786-0; 72 h, SRB; read-out: Supplementary table 1 / A4 IC50
Protocol: as §1

[10] = test system: OVCAR3; test: cells; set-up: Sulforhodamine B growth/viability assay on tumour cell line panel (Oncolead), six dilutions, compound replenished daily; details: Homo sapiens, OVCAR-3; 72 h, SRB; read-out: Supplementary table 1 / A4 IC50
Protocol: as §1

[11] = test system: HT-29; test: cells; set-up: Sulforhodamine B growth/viability assay on tumour cell line panel (Oncolead), six dilutions, compound replenished daily; details: Homo sapiens, HT-29; 72 h, SRB; read-out: Supplementary table 1 / A4 IC50
Protocol: as §1

[12] = test system: LOVO; test: cells; set-up: Sulforhodamine B growth/viability assay on tumour cell line panel (Oncolead), six dilutions, compound replenished daily; details: Homo sapiens, LoVo; 72 h, SRB; read-out: Supplementary table 1 / A4 IC50
Protocol: as §1

[13] = test system: OVCAR4; test: cells; set-up: Sulforhodamine B growth/viability assay on tumour cell line panel (Oncolead), six dilutions, compound replenished daily; details: Homo sapiens, OVCAR-4; 72 h, SRB; read-out: Supplementary table 1 / A4 IC50
Protocol: as §1

[14] = test system: IGROV-1; test: cells; set-up: Sulforhodamine B growth/viability assay on tumour cell line panel (Oncolead), six dilutions, compound replenished daily; details: Homo sapiens, IGROV-1; 72 h, SRB; read-out: Supplementary table 1 / A4 IC50
Protocol: as §1

[15] = test system: SW620; test: cells; set-up: Sulforhodamine B growth/viability assay on tumour cell line panel (Oncolead), six dilutions, compound replenished daily; details: Homo sapiens, SW-620; 72 h, SRB; read-out: Supplementary table 1 / A4 IC50
Protocol: as §1

[16] = test system: COLO205; test: cells; set-up: Sulforhodamine B growth/viability assay on tumour cell line panel (Oncolead), six dilutions, compound replenished daily; details: Homo sapiens, COLO 205; 72 h, SRB; read-out: Supplementary table 1 / A4 IC50
Protocol: as §1

[17] = test system: HCT116; test: cells; set-up: Sulforhodamine B growth/viability assay on tumour cell line panel (Oncolead), six dilutions, compound replenished daily; details: Homo sapiens, HCT-116; 72 h, SRB; read-out: Supplementary table 1 / A4 IC50
Protocol: as §1

[18] = test system: COLO678; test: cells; set-up: Sulforhodamine B growth/viability assay on tumour cell line panel (Oncolead), six dilutions, compound replenished daily; details: Homo sapiens, COLO-678; 72 h, SRB; read-out: Supplementary table 1 / A4 IC50
Protocol: as §1

[19] = test system: MDAMB231; test: cells; set-up: Sulforhodamine B growth/viability assay on tumour cell line panel (Oncolead), six dilutions, compound replenished daily; details: Homo sapiens, MDA-MB-231; 72 h, SRB; read-out: Supplementary table 1 / A4 IC50
Protocol: as §1

[20] = test system: UO31; test: cells; set-up: Sulforhodamine B growth/viability assay on tumour cell line panel (Oncolead), six dilutions, compound replenished daily; details: Homo sapiens, UO-31; 72 h, SRB; read-out: Supplementary table 1 / A4 IC50
Protocol: as §1

[21] = test system: MCF-7; test: cells; set-up: Sulforhodamine B growth/viability assay on tumour cell line panel (Oncolead), six dilutions, compound replenished daily; details: Homo sapiens, MCF7; 72 h, SRB; read-out: Supplementary table 1 / A4 IC50
Protocol: as §1

[22] = test system: MDAMB468; test: cells; set-up: Sulforhodamine B growth/viability assay on tumour cell line panel (Oncolead), six dilutions, compound replenished daily; details: Homo sapiens, MDA-MB-468; 72 h, SRB; read-out: Supplementary table 1 / A4 IC50
Protocol: as §1

[23] = test system: HCT15; test: cells; set-up: Sulforhodamine B growth/viability assay on tumour cell line panel (Oncolead), six dilutions, compound replenished daily; details: Homo sapiens, HCT-15; 72 h, SRB; read-out: Supplementary table 1 / A4 IC50
Protocol: as §1

[24] = test system: SKBR3; test: cells; set-up: Sulforhodamine B growth/viability assay on tumour cell line panel (Oncolead), six dilutions, compound replenished daily; details: Homo sapiens, SK-BR-3; 72 h, SRB; read-out: Supplementary table 1 / A4 IC50
Protocol: as §1

[25] = test system: MDAMB436; test: cells; set-up: Sulforhodamine B growth/viability assay on tumour cell line panel (Oncolead), six dilutions, compound replenished daily; details: Homo sapiens, MDA-MB-436; 72 h, SRB; read-out: Supplementary table 1 / A4 IC50
Protocol: as §1

T1 sequence (P98170 whole entry): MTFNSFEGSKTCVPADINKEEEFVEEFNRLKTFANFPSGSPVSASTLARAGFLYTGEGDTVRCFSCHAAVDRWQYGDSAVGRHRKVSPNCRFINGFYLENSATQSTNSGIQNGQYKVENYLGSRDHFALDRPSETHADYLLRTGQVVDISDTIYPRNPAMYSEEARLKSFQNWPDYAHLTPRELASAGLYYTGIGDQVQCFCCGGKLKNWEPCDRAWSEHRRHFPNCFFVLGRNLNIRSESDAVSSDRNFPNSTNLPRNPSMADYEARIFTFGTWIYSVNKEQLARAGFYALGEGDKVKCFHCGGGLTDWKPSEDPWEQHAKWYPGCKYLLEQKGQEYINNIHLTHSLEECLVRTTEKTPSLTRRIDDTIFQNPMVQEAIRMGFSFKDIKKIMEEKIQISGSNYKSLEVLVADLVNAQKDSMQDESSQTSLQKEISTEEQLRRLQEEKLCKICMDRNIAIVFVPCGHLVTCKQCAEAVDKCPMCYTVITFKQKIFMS

Q: Which Kd [1] does the source give for `COC(=O)c1[nH]c2ccc(Cl)cc2c1NC(=O)CN1CCN(Cc2ccccc2)CC1` [A4, methyl 5-chloro-3-[[2-[4-(phenylmethyl)piperazin-1-yl]acetyl]amino]-1H-indole-2-carboxylat] here?
A: 0.348 ± 0.228 µM

Q: And the IC50 [2]?
A: 8.14 µM

Q: And the IC50 [3]?
A: 9.56 µM

Q: And the IC50 [4]?
A: 2.8 µM

Q: What about the IC50 [5] of the same compound?
A: 8.24 µM

Q: And the IC50 [6]?
A: 13.6 µM

Q: And the IC50 [7]?
A: 8.14 µM

Q: And the IC50 [8]?
A: 5.99 µM

Q: And the IC50 [9]?
A: 6.3 µM

Q: What about the IC50 [10] of the same compound?
A: 8.4 µM

Q: What about the IC50 [11] of the same compound?
A: 1.84 µM

Q: What about the IC50 [12] of the same compound?
A: 5.96 µM

Q: And the IC50 [13]?
A: 9.99 µM

Q: And the IC50 [14]?
A: 8.08 µM

Q: And the IC50 [15]?
A: 10.4 µM

Q: What about the IC50 [16] of the same compound?
A: 7.38 µM

Q: And the IC50 [17]?
A: 11.2 µM

Q: And the IC50 [18]?
A: 14.4 µM

Q: What about the IC50 [19] of the same compound?
A: 10.1 µM

Q: And the IC50 [20]?
A: 6.48 µM

Q: And the IC50 [21]?
A: 4.61 µM

Q: What about the IC50 [22] of the same compound?
A: 6.22 µM

Q: What about the IC50 [23] of the same compound?
A: 5.03 µM

Q: What about the IC50 [24] of the same compound?
A: 7.98 µM

Q: And the IC50 [25]?
A: 7.16 µM
